{"source": "patent US9758516B2", "about": "“Crystalline form of an anxiolytic compound” (Bionomics Limited, priority 2013, dated 2017)", "key": {"[1]": {"test": "Stability study of Form B stored at about 25° C. and about 60% r.h. (HPLC, XRPD, IR)", "assay_type": "physicochemical", "set-up": "key to XRPD / IR: The term “complies” refers to substantially the same XRPD pattern and/or IR spectrum as the sample at the incept of the storage (time point=initial)", "settings": "for Concentration of compound 1 by HPLC Assay (anhydrous basis) / IR / XRPD: about 25° C., about 60% r.h.", "method": "A sample of Form B was stored at about 25° C. and about 60% r.h. for a period of time (e.g., 24 months). The concentration of compound 1 in the sample was assayed using HPLC, XRPD, and IR at different time points. The term “complies” refers to substantially the same XRPD pattern and/or IR spectrum as the sample at the incept of the storage (time point=initial)."}, "[2]": {"test": "Stability study of Form B stored at about 40° C. and about 75% r.h. (HPLC, XRPD, IR)", "assay_type": "physicochemical", "set-up": "key to XRPD / IR: The term “complies” refers to substantially the same XRPD pattern and/or IR spectrum as the sample at the incept of the storage (time point=initial)", "settings": "for Concentration of compound 1 by HPLC Assay (anhydrous basis) / IR / XRPD: about 40° C., about 75% r.h.", "method": "Standard solutions of the SP196-FD-P1 free drug of compound 1 and the L-malate salt of compound 1 (SP196-MLA-P4) were prepared in the concentration range of 0.2-0.05 mg/mL for the construction of a calibration curve.\nAnother sample of Form B was stored at about 40° C. and about 75% r.h. for a period of time (e.g., 6 months). The concentration of compound 1 in the sample was assayed using HPLC, XRPD, and IR at different time points. The term “complies” refers to substantially the same XRPD pattern and/or IR spectrum as the sample at the incept of the storage (time point=initial)."}, "[3]": {"test": "Dynamic vapor sorption (DVS) measurement, hygroscopicity", "assay_type": "physicochemical", "method": "Projekt Messtechnik Sorptions Prüfsystem SPS 11-100n or Surface Measurement Systems DVS-1. The sample was placed on an aluminum or platinum holder on top of a microbalance and allowed to equilibrate for 2 h at 50% r.h. before starting one of two pre-defined humidity programs:\n(2) 50→0% r.h. (5%/h); 5 h at 0% r.h.;\n(3) 0→95% r.h. (5%/h); 5 h at 95% r.h.; and\nThe hygroscopicity was classified based on the mass gain at 85% r.h. relative to the initial mass as follows: deliquescent (sufficient water adsorbed to form a liquid), very hygroscopic (mass increase of ≧15%), hygroscopic (mass increase <15% and ≧2%), slightly hygroscopic (mass increase <2% and ≧0.2%), or non-hygroscopic (mass increase <0.2%).\nDuring the DVS measurement (FIG. 4), the relative humidity was first lowered from 50% r.h. to 0% r.h., then raised from 0% r.h. to 95% r.h. and lowered back again to 50% r.h. […] Upon increasing the relative humidity to 95% r.h., a gradual mass gain of about 0.3 wt % (relative to the mass at 0% r.h.) was observed. […] The mass increase of 0.1 wt % at 85% r.h. (relative to the starting mass at 50% r.h.) classifies the sample as non-hygroscopic."}, "[4]": {"test": "Drying of Form B under vacuum at 40° C.", "assay_type": "physicochemical", "method": "A solid sample of Form B was dried in an attempt to dehydrate it. The sample was stored under vacuum (<5 mbar (e.g., about 4 mbar)) at 40° C. overnight or for 1 day."}, "[5]": {"test": "Competitive slurry experiment, Form B versus anhydrous form", "assay_type": "physicochemical", "description": "In some embodiments, it would be desirable to provide a crystalline polymorph of compound 1 that, as compared to the amorphous compound 1, imparts improved physical characteristics such as stability and/or ease of formulation. Accordingly, provided herein is a crystalline form (denoted Form B) of compound 1. Form B is a hemihydrate of compound 1. […] In some embodiments, Form B has a water content of about 2.0 wt %. […] In a competitive slurry experiment there was a tendency for the anhydrous form to convert to Form B."}, "[6]": {"settings": "reported, see U.S. Pat. No. 8,293,737; cited from earlier work"}, "[7]": {"settings": "vacuum (<5 mbar) at 40° C. overnight or for 1 day"}}, "data": [{"smiles": "CCn1cc(C(=O)N2CCOCC2)c(=O)c2cc(NC3Cc4ccccc4C3)cnc21", "note": "[Form B, 1-ethyl-6-(indan-2-ylamino)-3-(morpholine-4-carbonyl)-1,8-naphthyridin-4-one]", "values": [{"measurement": "stable upon storage, duration", "setting": "[1]; about 25° C. and about 60% r.h.", "result": "at least 24 months"}, {"measurement": "Concentration of compound 1 by HPLC Assay (anhydrous basis)", "setting": "[1]; 3 months", "result": 99.4, "unit": "% w/w"}, {"measurement": "IR", "setting": "[1]; 3 months", "result": "complies"}, {"measurement": "XRPD", "setting": "[1]; 3 months", "result": "complies"}, {"measurement": "Concentration of compound 1 by HPLC Assay (anhydrous basis)", "setting": "[1]; 6 months", "result": 99.6, "unit": "% w/w"}, {"measurement": "IR", "setting": "[1]; 6 months", "result": "complies"}, {"measurement": "XRPD", "setting": "[1]; 6 months", "result": "complies"}, {"measurement": "Concentration of compound 1 by HPLC Assay (anhydrous basis)", "setting": "[1]; 12 months", "result": 99.3, "unit": "% w/w"}, {"measurement": "IR", "setting": "[1]; 12 months", "result": "complies"}, {"measurement": "XRPD", "setting": "[1]; 12 months", "result": "complies"}, {"measurement": "Concentration of compound 1 by HPLC Assay (anhydrous basis)", "setting": "[1]; 18 months", "result": 99.4, "unit": "% w/w"}, {"measurement": "IR", "setting": "[1]; 18 months", "result": "complies"}, {"measurement": "XRPD", "setting": "[1]; 18 months", "result": "complies"}, {"measurement": "Concentration of compound 1 by HPLC Assay (anhydrous basis)", "setting": "[1]; 24 months", "result": 99.2, "unit": "% w/w"}, {"measurement": "IR", "setting": "[1]; 24 months", "result": "complies"}, {"measurement": "XRPD", "setting": "[1]; 24 months", "result": "complies"}, {"measurement": "Concentration of compound 1 by HPLC Assay (anhydrous basis)", "setting": "[1]; time point Initial", "result": 99.5, "unit": "% w/w"}, {"measurement": "stable upon storage, duration", "setting": "[2]; about 40° C. and about 75% r.h.", "result": "at least 6 months"}, {"measurement": "Concentration of compound 1 by HPLC Assay (anhydrous basis)", "setting": "[2]; 1 month", "result": 99.6, "unit": "% w/w"}, {"measurement": "Concentration of compound 1 by HPLC Assay (anhydrous basis)", "setting": "[2]; 2 months", "result": 99.3, "unit": "% w/w"}, {"measurement": "Concentration of compound 1 by HPLC Assay (anhydrous basis)", "setting": "[2]; 3 months", "result": 99.3, "unit": "% w/w"}, {"measurement": "IR", "setting": "[2]; 3 months", "result": "complies"}, {"measurement": "XRPD", "setting": "[2]; 3 months", "result": "complies"}, {"measurement": "Concentration of compound 1 by HPLC Assay (anhydrous basis)", "setting": "[2]; 6 months", "result": 99.4, "unit": "% w/w"}, {"measurement": "IR", "setting": "[2]; 6 months", "result": "complies"}, {"measurement": "XRPD", "setting": "[2]; 6 months", "result": "complies"}, {"measurement": "Concentration of compound 1 by HPLC Assay (anhydrous basis)", "setting": "[2]; time point Initial", "result": 99.5, "unit": "% w/w"}, {"measurement": "hygroscopicity (in words)", "setting": "[3]", "result": "substantially non-hygroscopic"}, {"measurement": "FT-Raman spectrum after the DVS measurement compared to before", "setting": "[3]; after DVS cycle 50→0→95→50% r.h.", "result": "unchanged"}, {"measurement": "mass increase (DVS)", "setting": "[3]; at 85% r.h., relative to the starting mass at 50% r.h.", "result": 0.1, "unit": "wt %"}, {"measurement": "hygroscopicity classification", "setting": "[3]; based on the mass gain at 85% r.h. relative to the initial mass", "result": "non-hygroscopic (non-hygroscopic (mass increase <0.2%))"}, {"measurement": "mass gain (DVS)", "setting": "[3]; upon increasing the relative humidity to 95% r.h., relative to the mass at 0% r.h.", "result": "about 0.3 wt %"}, {"measurement": "mass loss (DVS)", "setting": "[3]; upon lowering the relative humidity from 50% r.h. to 0% r.h.", "result": "about 0.1 wt %"}, {"measurement": "final mass (DVS)", "setting": "[3]; upon lowering the relative humidity from 95% r.h. to 50% r.h.", "result": "equal to the starting mass"}, {"measurement": "stability upon drying", "setting": "[4]", "result": "stable upon drying"}, {"measurement": "loss of H2O of the dried sample (TG-FTIR)", "setting": "[4]; dried sample, from 50° C. to 200° C.", "result": "about 1.9 wt %"}, {"measurement": "XRPD pattern of the dried sample compared to before drying", "setting": "[4]; [7]", "result": "unchanged"}, {"measurement": "dehydration on drying", "setting": "[4]; [7]", "result": "no dehydration and loss of solvent occurred"}, {"measurement": "relative stability of forms", "setting": "[5]", "result": "more stable than an anhydrous form of compound 1"}]}, {"smiles": "CCn1cc(C(=O)N2CCOCC2)c(=O)c2cc(NC3Cc4ccccc4C3)cnc21", "note": "[Compound 1, 1-ethyl-6-(indan-2-ylamino)-3-(morpholine-4-carbonyl)-1,8-naphthyridin-4-one]", "values": [{"measurement": "sedative side effects", "setting": "[6]", "result": "without sedative side effects"}]}]}
